In the NIST ThermoML archive (doi:10.1007/s10765-006-0045-2):
“And” between values parts separate entries of the source, which are not always exact repeats. Identical values can stand only once. Numbers after ± are expanded uncertainties.

Legend:
[1] = 101.33 kPa, Crystal; for thermal diffusivity: laser flash method
[2] = molar heat capacity at constant pressure; conditions: 101.33 kPa, Resistive pulse heating

For `[Hf]` [hafnium], the thermal diffusivity ([1]; 285 K) was 1.36e-05 ± 5.5e-07 m2/s, the thermal diffusivity ([1]; 293 K) was 1.38e-05 ± 5.5e-07 m2/s and the mass density ([1]; 298.1 K, mass over volume) was 13222 ± 190 kg/m3 [middle of 5 runs]. For the same compound, the thermal diffusivity ([1]; 321 K) was 1.32e-05 ± 5.3e-07 m2/s, the thermal diffusivity ([1]; 326 K) was 1.31e-05 ± 5.3e-07 m2/s and the thermal diffusivity ([1]; 375 K) was 1.24e-05 ± 5e-07 m2/s. For the same compound, the thermal diffusivity ([1]; 386 K) was 1.22e-05 ± 4.9e-07 m2/s, the thermal diffusivity ([1]; 423 K) was 1.19e-05 ± 4.7e-07 m2/s and the thermal diffusivity ([1]; 433 K) was 1.17e-05 ± 4.7e-07 m2/s. It also gave a thermal diffusivity ([1]; 459 K) of 1.15e-05 ± 4.6e-07 m2/s, a thermal diffusivity ([1]; 492 K) of 1.12e-05 ± 4.5e-07 m2/s and a thermal diffusivity ([1]; 521 K) of 1.08e-05 ± 4.3e-07 m2/s. The thermal diffusivity ([1]; 530 K) was 1.08e-05 ± 4.3e-07 m2/s, the thermal diffusivity ([1]; 568 K) was 1.05e-05 ± 4.2e-07 m2/s and the thermal diffusivity ([1]; 579 K) was 1.06e-05 ± 4.2e-07 m2/s. For the same compound, the thermal diffusivity ([1]; 615 K) was 1.02e-05 ± 4.1e-07 m2/s, the thermal diffusivity ([1]; 618 K) was 1.04e-05 ± 4.2e-07 m2/s and the thermal diffusivity ([1]; 664 K) was 1e-05 m2/s and 1.02e-05 m2/s. For the same compound, the thermal diffusivity ([1]; 714 K) was 9.91e-06 ± 4e-07 m2/s, the thermal diffusivity ([1]; 715 K) was 9.92e-06 ± 4e-07 m2/s and the thermal diffusivity ([1]; 760 K) was 9.79e-06 ± 3.9e-07 m2/s. The thermal diffusivity ([1]; 767 K) was 9.72e-06 ± 3.9e-07 m2/s, the thermal diffusivity ([1]; 817 K) was 9.57e-06 ± 3.8e-07 m2/s and the thermal diffusivity ([1]; 825 K) was 9.67e-06 ± 3.9e-07 m2/s. The thermal diffusivity ([1]; 862 K) was 9.46e-06 ± 3.8e-07 m2/s, the thermal diffusivity ([1]; 874 K) was 9.59e-06 ± 3.8e-07 m2/s and the thermal diffusivity ([1]; 914 K) was 9.36e-06 ± 3.7e-07 m2/s. For the same compound, the thermal diffusivity ([1]; 919 K) was 9.54e-06 ± 3.8e-07 m2/s, the thermal diffusivity ([1]; 962 K) was 9.32e-06 ± 3.7e-07 m2/s and the thermal diffusivity ([1]; 965 K) was 9.54e-06 ± 3.8e-07 m2/s. The thermal diffusivity ([1]; 1012 K) was 9.29e-06 ± 3.7e-07 m2/s, the thermal diffusivity ([1]; 1017 K) was 9.54e-06 ± 3.8e-07 m2/s and the thermal diffusivity ([1]; 1065 K) was 9.26e-06 m2/s and 9.53e-06 m2/s. For the same compound, the thermal diffusivity ([1]; 1113 K) was 9.27e-06 ± 3.7e-07 m2/s, the thermal diffusivity ([1]; 1118 K) was 9.59e-06 ± 3.8e-07 m2/s and the thermal diffusivity ([1]; 1162 K) was 9.4e-06 ± 3.8e-07 m2/s. The thermal diffusivity ([1]; 1174 K) was 9.6e-06 ± 3.8e-07 m2/s, the thermal diffusivity ([1]; 1215 K) was 9.45e-06 ± 3.8e-07 m2/s and the thermal diffusivity ([1]; 1222 K) was 9.65e-06 ± 3.9e-07 m2/s. For the same compound, the thermal diffusivity ([1]; 1262 K) was 9.43e-06 ± 3.8e-07 m2/s, the thermal diffusivity ([1]; 1277 K) was 9.81e-06 ± 3.9e-07 m2/s and the thermal diffusivity ([1]; 1314 K) was 9.5e-06 ± 3.8e-07 m2/s. For the same compound, the thermal diffusivity ([1]; 1332 K) was 9.85e-06 ± 3.9e-07 m2/s, the thermal diffusivity ([1]; 1362 K) was 9.7e-06 ± 3.9e-07 m2/s and the thermal diffusivity ([1]; 1370 K) was 1e-05 ± 4e-07 m2/s. For the same compound, the thermal diffusivity ([1]; 1417 K) was 9.96e-06 ± 4e-07 m2/s, the thermal diffusivity ([1]; 1430 K) was 1.02e-05 ± 4.1e-07 m2/s and the thermal diffusivity ([1]; 1463 K) was 1e-05 ± 4e-07 m2/s. The thermal diffusivity ([1]; 1472 K) was 1.05e-05 ± 4.2e-07 m2/s, the “molar heat capacity at constant pressure” value ([2]; 294 K, Crystal 2) was 25.61 ± 1.5 J/K/mol and 25.77 ± 1.6 J/K/mol and the “molar heat capacity at constant pressure” value ([2]; 321 K, Crystal 2) was 25.86 ± 1.6 J/K/mol and 26.01 ± 1.6 J/K/mol. For the same compound, the “molar heat capacity at constant pressure” value ([2]; 372 K, Crystal 2) was 26.33 ± 1.6 J/K/mol and 26.38 ± 1.6 J/K/mol, the “molar heat capacity at constant pressure” value ([2]; 421 K, Crystal 2) was 26.77 ± 1.6 J/K/mol and 26.7 ± 1.6 J/K/mol and the “molar heat capacity at constant pressure” value ([2]; 471 K, Crystal 2) was 27.22 ± 1.6 J/K/mol and 27.1 ± 1.6 J/K/mol. The “molar heat capacity at constant pressure” value ([2]; 522 K, Crystal 2) was 27.67 ± 1.7 J/K/mol and 27.49 ± 1.6 J/K/mol, the “molar heat capacity at constant pressure” value ([2]; 571 K, Crystal 2) was 28.09 ± 1.7 J/K/mol and 27.88 ± 1.7 J/K/mol and the “molar heat capacity at constant pressure” value ([2]; 622 K, Crystal 2) was 28.52 ± 1.7 J/K/mol and 28.29 ± 1.7 J/K/mol. The “molar heat capacity at constant pressure” value ([2]; 671 K, Crystal 2) was 28.93 ± 1.7 J/K/mol and 28.67 ± 1.7 J/K/mol, the “molar heat capacity at constant pressure” value ([2]; 721 K, Crystal 2) was 29.36 ± 1.8 J/K/mol and 29.04 ± 1.7 J/K/mol and the “molar heat capacity at constant pressure” value ([2]; 771 K, Crystal 2) was 29.77 ± 1.8 J/K/mol and 29.47 ± 1.8 J/K/mol. For the same compound, the “molar heat capacity at constant pressure” value ([2]; 821 K, Crystal 2) was 30.17 ± 1.8 J/K/mol and 29.95 ± 1.8 J/K/mol, the “molar heat capacity at constant pressure” value ([2]; 871 K, Crystal 2) was 30.56 ± 1.8 J/K/mol and 30.4 ± 1.8 J/K/mol and the “molar heat capacity at constant pressure” value ([2]; 921 K, Crystal 2) was 30.95 ± 1.9 J/K/mol and 30.84 ± 1.9 J/K/mol. The “molar heat capacity at constant pressure” value ([2]; 971 K, Crystal 2) was 31.34 ± 1.9 J/K/mol and 31.25 ± 1.9 J/K/mol, the “molar heat capacity at constant pressure” value ([2]; 1021 K, Crystal 2) was 31.72 ± 1.9 J/K/mol and 31.7 ± 1.9 J/K/mol and the “molar heat capacity at constant pressure” value ([2]; 1071 K, Crystal 2) was 32.08 ± 1.9 J/K/mol and 32.11 ± 1.9 J/K/mol. For the same compound, the “molar heat capacity at constant pressure” value ([2]; 1121 K, Crystal 2) was 32.45 ± 1.9 J/K/mol and 32.49 ± 1.9 J/K/mol, the “molar heat capacity at constant pressure” value ([2]; 1171 K, Crystal 2) was 32.84 ± 2 J/K/mol and 32.93 ± 2 J/K/mol and the “molar heat capacity at constant pressure” value ([2]; 1221 K, Crystal 2) was 33.2 ± 2 J/K/mol and 33.34 ± 2 J/K/mol. For the same compound, the “molar heat capacity at constant pressure” value ([2]; 1271 K, Crystal 2) was 33.54 ± 2 J/K/mol and 33.73 ± 2 J/K/mol, the “molar heat capacity at constant pressure” value ([2]; 1321 K, Crystal 2) was 33.88 ± 2 J/K/mol and 34.13 ± 2.1 J/K/mol and the “molar heat capacity at constant pressure” value ([2]; 1371 K, Crystal 2) was 34.2 ± 2.1 J/K/mol and 34.52 ± 2.1 J/K/mol. The “molar heat capacity at constant pressure” value ([2]; 1421 K, Crystal 2) was 34.52 ± 2.1 J/K/mol and 34.91 ± 2.1 J/K/mol, the “molar heat capacity at constant pressure” value ([2]; 1471 K, Crystal 2) was 34.84 ± 2.1 J/K/mol and 35.25 ± 2.1 J/K/mol and the “molar heat capacity at constant pressure” value ([2]; 1521 K, Crystal 2) was 35.15 ± 2.1 J/K/mol and 35.68 ± 2.1 J/K/mol. For the same compound, the “molar heat capacity at constant pressure” value ([2]; 1571 K, Crystal 2) was 35.45 ± 2.1 J/K/mol and 36.06 ± 2.2 J/K/mol, the “molar heat capacity at constant pressure” value ([2]; 1621 K, Crystal 2) was 35.73 ± 2.1 J/K/mol and 36.38 ± 2.2 J/K/mol and the “molar heat capacity at constant pressure” value ([2]; 1671 K, Crystal 2) was 36.02 ± 2.2 J/K/mol and 36.7 ± 2.2 J/K/mol. The “molar heat capacity at constant pressure” value ([2]; 1721 K, Crystal 2) was 36.31 ± 2.2 J/K/mol and 37.13 ± 2.2 J/K/mol, the “molar heat capacity at constant pressure” value ([2]; 1771 K, Crystal 2) was 36.57 ± 2.2 J/K/mol and 37.48 ± 2.2 J/K/mol and the “molar heat capacity at constant pressure” value ([2]; 1821 K, Crystal 2) was 36.84 ± 2.2 J/K/mol and 37.88 ± 2.3 J/K/mol. For the same compound, the “molar heat capacity at constant pressure” value ([2]; 1871 K, Crystal 2) was 37.09 ± 2.2 J/K/mol and 38.29 ± 2.3 J/K/mol, the “molar heat capacity at constant pressure” value ([2]; 1921 K, Crystal 2) was 37.34 ± 2.2 J/K/mol and 38.64 ± 2.3 J/K/mol and the “molar heat capacity at constant pressure” value ([2]; 1971 K, Crystal 2) was 37.59 ± 2.2 J/K/mol and 40.2 ± 2.4 J/K/mol. The “molar heat capacity at constant pressure” value ([2]; 1983 K, Crystal 2) was 39.18 ± 2.4 J/K/mol, the “molar heat capacity at constant pressure” value ([2]; 2121 K, Crystal 1) was 34.13 ± 2.1 J/K/mol and 34.29 ± 2.1 J/K/mol and the “molar heat capacity at constant pressure” value ([2]; 2171 K, Crystal 1) was 34.18 ± 2.1 J/K/mol and 34.29 ± 2.1 J/K/mol. The “molar heat capacity at constant pressure” value ([2]; 2222 K, Crystal 1) was 34.23 ± 2.1 J/K/mol and 34.29 ± 2.1 J/K/mol, the “molar heat capacity at constant pressure” value ([2]; 2272 K, Crystal 1) was 34.29 ± 2.1 J/K/mol and the “molar heat capacity at constant pressure” value ([2]; 2321 K, Crystal 1) was 34.41 ± 2.1 J/K/mol. The “molar heat capacity at constant pressure” value ([2]; 2336 K, Crystal 1) was 34.5 ± 2.1 J/K/mol.
